In patent US20160282364A1, “ASSAY FOR INSULIN-DEGRADING ENZYME (IDE) INHIBITORS” (PRESIDENT AND FELLOWS OF HARVARD COLLEGE, priority 2013, published 2016):

Tested on: Wild-type mice
Experiment: Gastric emptying measurements
Type: in vivo, mouse
Details: 30 minutes post-gavage, vs vehicle and bisepi-6bK controls
Method: Trunk blood was obtained for plasma hormone measurements using the Multiplexed Mouse Metabolic Hormone panel (Milliplex, EMD Millipore) on a Luminex FlexMap 3D instrument. Gastric emptying was measured by dissection of stomachs 30 min after an oral glucose bolus (3.0 g/kg, 10 mL/kg) in sterile saline containing 0.1 mg/mL phenol red.
Gastric emptying measurements. Mice were fasted 14 h (8 pm to 10 am). Inhibitor or vehicle alone was injected i.p. as previously described, followed 30 min later by an oral glucose bolus (3.0 g/kg, 10 mL/kg) in sterile saline containing 0.1 mg/mL phenol red. At 30 min, the stomach was promptly dissected after CO2-euthanasia and stored on ice. The stomach contents were extracted into 2.5 mL EtOH (95%) by homogenization for 1 min using a probe sonicator. Tissue debris were decanted by centrifugation at 4000 g, followed by clearing at 15000 g for 15 min. The supernatant (1 mL) was mixed with 0.5 mL of aqueous NaOH (20 mM), and incubated at −20° C. for 1 h. The solution was centrifuged at 15,000 g for 15 min, and absorbance was determined at 565 nm. The spectrophotometer was blanked with the stomach contents of a mouse treated with colorless glucose solution. The absorbance was adjusted to the amount of glucose solution dosed to each mouse. Values are reported as mean±S.E.M relative to the original phenol red glucose solution. […]

Structure (SMILES): NCCCC[C@@H]1NC(=O)/C=C/C(=O)N[C@H](C(N)=O)CCCCNC(=O)[C@@H](Cc2ccc(C(=O)c3ccccc3)cc2)NC(=O)[C@H](CC2CCCCC2)NC1=O [Compound 6bK]
- slower gastric emptying of a labeled glucose solution: 2 fold
